The structures appear in SMILES notation. Counter-ions that a name gives are not always drawn. Like-named read-outs stand apart in the source and are kept apart here.

Test systems include CHRF288-11; MOLM-13; CMK; U937; M07e; CMS; MV4-11; ML-2.
Design in all cases: species or system AML cell lines (8); Primary HTS, single concentration about 10 uM, Cell Titer Glo viability; log10 luminescence, per cent inhibition relative to cycloheximide control
Details in all cases: 72 h, relative to cycloheximide control, log10 luminescence, inhibitor

`CS(=O)(=O)Nc1ccc(-c2ccc3c(NC(=O)C4CC4)n[nH]c3c2)cc1` [SJ000573198-1, VB100064-183A1]: the CHRF288-11 %inh in the assay with CHRF288-11 amounted to 1.64%. Besides, the MOLM-13 %inh in the assay on MOLM-13 worked out at 0.3925%. For the same molecule, the CMK %inh in the assay with CMK came to 0.4517%. Moreover, in the assay on U937, the U937 %inh is reported as -2.07%. Further, the M07e %inh in the assay with M07e is reported as 7.577%. In addition, the CMS %inh in the assay on CMS is on record as -0.1456%. Moreover, in the assay with MV4-11, the MV4-11 %inh worked out at 1.756%. Moreover, the ML-2 %inh in the assay with ML-2 came out at 1.388%.

For the molecule `Cn1c(=O)c(Sc2ccccc2F)cc2cnc(NC3CCOCC3)nc21` [SJ000581094-1], the CHRF288-11 %inh in the assay on CHRF288-11 was 5.078%. Moreover, the MOLM-13 %inh with MOLM-13 was -2.304%. Moreover, the CMK %inh with CMK was -1.429%. In addition, in the assay with U937, the U937 %inh is -2.114%. For the same molecule, the M07e %inh with M07e came out at 79.34%. Also, the CMS %inh in the assay on CMS is listed as -0.09142%. Moreover, the MV4-11 %inh in the assay on MV4-11 is reported as 1.745%. In addition, the ML-2 %inh with ML-2 is -0.9832%.

As for `CN(C)c1cc2c(Nc3ccc4nc(Cc5ccccc5)[nH]c4c3)ncnc2cn1` [SJ000573096-1, R142/81/1], the CHRF288-11 %inh in the assay with CHRF288-11 is reported as -0.8109%. In addition, the MOLM-13 %inh with MOLM-13 worked out at 19.45%. In the assay on CMK, the CMK %inh stood at 4.629%. Moreover, the U937 %inh with U937 was -0.02909%. Also, the M07e %inh in the assay on M07e was -6.495%. Besides, the CMS %inh in the assay on CMS amounted to 0.4943%. The MV4-11 %inh with MV4-11 turned out to be 3.394%. Further, in the assay on ML-2, the ML-2 %inh is reported as -0.4937%.

As for `Fc1ccc(-c2ncn(C3CCNCC3)c2-c2ccnc(Oc3ccc(F)c(F)c3)n2)cc1` [SJ000573012-1, JB27026-232B1], the CHRF288-11 %inh with CHRF288-11 is -0.6747%. The MOLM-13 %inh with MOLM-13 is recorded as -3.394%. For the same molecule, in the assay on CMK, the CMK %inh is 0.6183%. The U937 %inh in the assay with U937 was -1.918%. Besides, the M07e %inh in the assay on M07e is recorded as -2.095%. In the assay with CMS, the CMS %inh is on record as 1.648%. The MV4-11 %inh in the assay on MV4-11 was found to be 1.825%. Further, the ML-2 %inh with ML-2 amounted to 1.308%.

Consider `Cc1[nH]n(-c2ccccc2)c(=O)c1C(=O)c1ccccc1` [SJ000581048-1], for which the CHRF288-11 %inh in the assay with CHRF288-11 was 3.222%. In addition, in the assay on MOLM-13, the MOLM-13 %inh was -1.767%. The CMK %inh in the assay with CMK was -9.373%. In addition, the U937 %inh in the assay on U937 is recorded as -0.7202%. For the same molecule, the M07e %inh in the assay with M07e is on record as -0.3361%. Also, the CMS %inh with CMS is given as 1.313%. Further, the MV4-11 %inh in the assay on MV4-11 was -2.724%. In the assay with ML-2, the ML-2 %inh was found to be 0.679%.

Regarding `Nc1nccc(-c2c(-c3ccc(F)cc3)ncn2C2CCC(O)CC2)n1` (stereo not shown) [SJ000573182-1, MS27011-022A2], the CHRF288-11 %inh with CHRF288-11 was 23.09%. Moreover, in the assay on MOLM-13, the MOLM-13 %inh stood at 26.67%. Besides, the CMK %inh in the assay with CMK came out at 25.82%. Also, the U937 %inh in the assay on U937 turned out to be 5.213%. Moreover, the M07e %inh in the assay with M07e came out at 6.63%. The CMS %inh with CMS is on record as 9.299%. In addition, the MV4-11 %inh in the assay on MV4-11 turned out to be 24.38%. In the assay on ML-2, the ML-2 %inh is 10.85%.

As to `CN[C@@H]1[C@H](O[C@H]2[C@H](O[C@H]3[C@H](O)[C@@H](O)[C@H](N=C(N)N)[C@@H](O)[C@@H]3N=C(N)N)O[C@@H](C)[C@]2(O)C=O)O[C@@H](CO)[C@H](O)[C@H]1O` [SJ000285297-4, STREPTOMYCIN SULFATE], the CHRF288-11 %inh with CHRF288-11 (CHRF288-11 %inh, 10 µM) stood at 6.76%. Besides, the MOLM-13 %inh in the assay with MOLM-13 (MOLM-13 %inh, 10 µM) turned out to be 1.953%. Also, in the assay with CMK (CMK %inh, 10 µM), the CMK %inh is recorded as 3.295%. For the same molecule, in the assay on U937 (U937 %inh, 10 µM), the U937 %inh is reported as -1.404%. Also, the M07e %inh in the assay with M07e (M07e %inh, 10 µM) was -4.718%. Also, in the assay on CMS (CMS %inh, 10 µM), the CMS %inh was -1.268%. The MV4-11 %inh in the assay with MV4-11 (MV4-11 %inh, 10 µM) is on record as -1.642%. The ML-2 %inh in the assay with ML-2 (ML-2 %inh, 10 µM) was -3.476%.

For the molecule `c1cnn2ncc(-c3ccnc(Nc4ccc5c(c4)OCCO5)n3)c2c1` [SJ000573318-1, U18020/87/1], in the assay with CHRF288-11, the CHRF288-11 %inh is on record as 71.61%. The MOLM-13 %inh in the assay on MOLM-13 turned out to be 99.59%. Besides, in the assay with CMK, the CMK %inh was 109.1%. Also, in the assay on U937, the U937 %inh is given as 81.34%. The M07e %inh in the assay with M07e was 112.6%. The CMS %inh in the assay on CMS is listed as 106%. Besides, the MV4-11 %inh with MV4-11 is given as 79.44%. Moreover, the ML-2 %inh in the assay on ML-2 amounted to 59.44%.

In the case of `Cn1cc(C2=C(c3cn(CCCCCO)c4ccccc34)C(=O)NC2=O)c2ccccc21` [SJ000581010-1], the CHRF288-11 %inh in the assay with CHRF288-11 was found to be 17.96%. Besides, the MOLM-13 %inh with MOLM-13 was 6.709%. In the assay on CMK, the CMK %inh worked out at 27.55%. The U937 %inh with U937 is reported as -0.3264%. In the assay with M07e, the M07e %inh is listed as 1.341%. Moreover, the CMS %inh with CMS is 1.022%. In the assay with MV4-11, the MV4-11 %inh is recorded as -1.111%. Further, the ML-2 %inh in the assay with ML-2 is given as -1.548%.

In the case of `O=S(=O)(CCOCc1ccc(-c2ccc3ncnc(Nc4ccc(OCc5cccc(F)c5)c(Cl)c4)c3c2)o1)c1ccccc1` [SJ000573116-1, U15872/4/1], in the assay with CHRF288-11, the CHRF288-11 %inh is -0.6594%. In the assay with MOLM-13, the MOLM-13 %inh was -1.247%. In the assay on CMK, the CMK %inh is -5.52%. Moreover, the U937 %inh in the assay with U937 is given as -1.869%. Moreover, the M07e %inh in the assay on M07e is -2.095%. Also, the CMS %inh in the assay on CMS is on record as 1.936%. In addition, the MV4-11 %inh in the assay with MV4-11 is on record as 2.149%. In the assay with ML-2, the ML-2 %inh is -0.1863%.

In the case of `O=C(O)c1cc(-c2ccc(F)cc2F)ccc1O` [SJ000285738-4, DIFLUNISAL], the CHRF288-11 %inh in the assay on CHRF288-11 is given as -4.662%. Further, the MOLM-13 %inh with MOLM-13 is listed as 1.208%. Moreover, the CMK %inh in the assay on CMK is -0.9892%. Moreover, the U937 %inh in the assay with U937 amounted to 4.296%. Besides, in the assay on M07e, the M07e %inh was 2.006%. The CMS %inh in the assay on CMS worked out at 0.6702%. Further, in the assay on MV4-11, the MV4-11 %inh was determined as 3.937%. Besides, in the assay on ML-2, the ML-2 %inh is given as -0.2454%.

On to `CS(=O)(=O)Nc1cccc(-c2ccc3c(NC(=O)C4CC4)n[nH]c3c2)c1` [SJ000573187-1, VB100064-178A3], for which, in the assay with CHRF288-11, the CHRF288-11 %inh came to 25.27%. Besides, the MOLM-13 %inh in the assay on MOLM-13 is listed as 75.64%. Besides, in the assay on CMK, the CMK %inh is on record as 72.59%. Moreover, the U937 %inh in the assay on U937 was 80.28%. In the assay on M07e, the M07e %inh is listed as 29.33%. Besides, the CMS %inh in the assay with CMS was determined as 0.4745%. The MV4-11 %inh with MV4-11 is 73.57%. Besides, the ML-2 %inh with ML-2 came to 56.77%.

On to `OC(Cn1cncn1)(Cn1cncn1)c1ccc(F)cc1F` [SJ000286024-3, FLUCONAZOLE], for which the CHRF288-11 %inh with CHRF288-11 is -3.189%. Besides, the MOLM-13 %inh in the assay with MOLM-13 is given as -1.868%. Further, the CMK %inh in the assay with CMK was -0.02108%. Further, in the assay on U937, the U937 %inh is listed as 1.624%. In the assay on M07e, the M07e %inh is recorded as -2.445%. For the same molecule, the CMS %inh with CMS is on record as -4.097%. Further, the MV4-11 %inh with MV4-11 was 0.2312%. Besides, in the assay with ML-2, the ML-2 %inh was -1.511%.

With `Cc1cccc(Nc2ccncc2S(=O)(=O)NC(=O)NC(C)C)c1` [SJ000286085-4, TORSEMIDE], in the assay with CHRF288-11 (CHRF288-11 %inh, 10 µM), the CHRF288-11 %inh is 121.5%. Further, the MOLM-13 %inh with MOLM-13 (MOLM-13 %inh, 10 µM) stood at 0.9883%. Further, the CMK %inh in the assay with CMK (CMK %inh, 10 µM) came to 4.671%. Moreover, in the assay on U937 (U937 %inh, 10 µM), the U937 %inh was determined as 0.4443%. Also, in the assay on M07e (M07e %inh, 10 µM), the M07e %inh stood at 11.12%. Further, the CMS %inh in the assay on CMS (CMS %inh, 10 µM) was -0.4672%. In the assay on MV4-11 (MV4-11 %inh, 10 µM), the MV4-11 %inh turned out to be 3.27%. The ML-2 %inh with ML-2 (ML-2 %inh, 10 µM) is -0.2644%.

On to `CC1(C)CC(n2cnc(-c3ccc(F)cc3)c2-c2ccnc(N)n2)CC(C)(C)N1` [SJ000573190-1, JB19236-188C1], for which the CHRF288-11 %inh with CHRF288-11 is 9.345%. In addition, in the assay with MOLM-13, the MOLM-13 %inh is listed as 0.169%. For the same molecule, in the assay with CMK, the CMK %inh was 5.841%. In addition, the U937 %inh in the assay with U937 was -2.021%. Moreover, in the assay on M07e, the M07e %inh was determined as 10.18%. Further, in the assay with CMS, the CMS %inh is recorded as -2.621%. Also, the MV4-11 %inh with MV4-11 turned out to be 1.547%. In addition, the ML-2 %inh in the assay with ML-2 is given as 5.936%.

For `CCOC(=O)[C@H](CCc1ccccc1)N[C@@H](C)C(=O)N1[C@H](C(=O)O)C[C@@H]2CCC[C@@H]21` [SJ000287048-3], the CHRF288-11 %inh with CHRF288-11 is on record as -4.815%. Also, in the assay on MOLM-13, the MOLM-13 %inh was -1.2%. Moreover, in the assay with CMK, the CMK %inh was determined as 1.362%. Also, the U937 %inh with U937 is 1.846%. Besides, in the assay on M07e, the M07e %inh is given as -2.965%. For the same molecule, in the assay with CMS, the CMS %inh is recorded as -0.1854%. The MV4-11 %inh in the assay on MV4-11 is listed as 3.659%. For the same molecule, the ML-2 %inh in the assay with ML-2 is -0.556%.

For the molecule `N=C1NC(=O)N2CC12` (stereo not shown) [SJ000564440-1, IMEXON], the CHRF288-11 %inh with CHRF288-11 is 28.3%. The MOLM-13 %inh with MOLM-13 came to 4.482%. For the same molecule, the CMK %inh in the assay on CMK is given as -0.6297%. Further, the U937 %inh in the assay with U937 came to 11.23%. In the assay on M07e, the M07e %inh was found to be 3.11%. The CMS %inh in the assay with CMS came to 13.09%. For the same molecule, in the assay on MV4-11, the MV4-11 %inh amounted to 2.121%. Further, in the assay on ML-2, the ML-2 %inh is listed as 2.993%.

The values are drawn from article PMC6522510 (Nature Communications, 2019).
